Experimental data as given in patent US6894068B2, “Substituted benzimidazoles as non-nucleoside inhibitors of reverse transcriptase” (The United States of America as represented by the …, priority 1997, dated 2005).
Values joined by “and” are separate entries in the source; they are usually repeats but may differ in a detail not shown here. Equal values may be shown once. Read-outs that look alike come from different tables or passages of the source.

Key:
HIV-1 WT RT = HIV-1 WT RT (Human immunodeficiency virus type 1 group M subtype B, UniProt P03366); assay: biochemical; assay type: biochemical; conditions: for RT inhibition, result in words: WT RT
HIV-1 WT virus (NL4-3) = assay: microbe, parasite or virus in culture; assay type: cell-based; conditions: for EC50: read-out: EC50
Description: Evaluation of these compounds for the inhibition of HIV-1 was determined as the fifty percent cell culture inhibitory concentration (CIC50) in CEMSS cell culture with WT virus (NL4-3).
(§1) In this Example, the antiviral and cellular toxicity of NNRTIs was investigated, using the cytopathic cell killing assay described by Yang (Yang et al., “Characteristics of a Group of Non-nucleoside Reverse Transcriptase Inhibitors with Structural Diversity and Potent Anti-Human Immunodeficiency Virus Activity,” Leukemia 9:S75-S85 [1995]). Briefly, in this method cells (e.g., the CEM-SS cell line, available from the NIAID AIDS Research and Reference Program [ARRRP]) were seeded at a density of 5×10^3 cells/well, into the wells of a 96-well microtiter plate. The cells were then infected with HIV virus (either mutant or WT), at a multiplicity of infection (MOI) previously determined to provide complete cell killing by 6 days of culture post-infection (e.g., MOI of 0.01-0.05). Each of the HIV isolates was pre-titered to induce equivalent levels of infection based on cell killing or virus production, prior to their use in these assays. A range of test compound concentrations was added to the wells in triplicate (e.g., serial half-log dilutions) to evaluate inhibition of HIV infection. Controls for each assay included drug controls (drug colorimetric control wells), drug cytotoxicity control wells (cells with drug), virus control wells (cells with virus), and cell viability controls (cells only). Positive control drugs (e.g. AZT and ddC) were also run in parallel.
(§2) After six days of incubation at 37° C., cell viability was determined spectrophotometrically at 450 nm for each well, using the metabolic reduction of XTT to a soluble colored formazan. (See, Gartner and Popovic, “Virus Isolation and Production, in Aldovini and Walker (eds.), Techniques in HIV Research, Stockton Press, NY, pp. […] [1991]; and Nara and Fischinger, “Quantitative Infectivity Assay for HIV-1 and HIV-2, ” Nature 332:469-470 [1988]).
(§3) The in vitro therapeutic index (TI50) was defined as the fold-difference between the EC50 and IC50. The results for the various compounds are included in FIGS. 8 and 19.

[1] = tested on: HIV-1 isolate 4xAZT/Y181C; assay: Cytopathic cell killing assay, MT-4 cells, isolate 4xAZT/Y181C; assay type: cell-based; conditions: Human immunodeficiency virus 1, MT4, read-out: EC50, isolate 4XAZT/Y181C
Description: (§4) The various HIV isolates tested in the Figures are those corresponding to wild-type virus (NL4-3) and the other strains listed by their RT mutations. The three 4×AZT isolates included in the Figures represent AZT drug-resistant variants. For example, the 4×AZT/L100I isolate has five mutations: four mutations confer increased resistance to AZT, and the other mutation is located within the NNRTI binding pocket. TZB and nevir. (nevirapine) are two well-known NNRTIs, included in this experiment for comparison purposes.
as §1, §2, §3

HIV-1 NL4-3 (WT) = assay: Cytopathic cell killing assay, MT-4 cells, isolate NL4-3 (WT); assay type: cell-based
Description: as §4, §1, §2, §3

HIV-1 isolate L100I = assay: Cytopathic cell killing assay, MT-4 cells, isolate L100I; assay type: cell-based; conditions: Table 10; values in μM; read-out: EC50, isolate L100I
Description: as §4, §1, §2, §3

HIV-1 isolate K101E = assay: Cytopathic cell killing assay, MT-4 cells, isolate K101E; assay type: cell-based; conditions: Table 10; values in μM; read-out: EC50, isolate K101E
Description: as §4, §1, §2, §3

HIV-1 isolate K103N = assay: Cytopathic cell killing assay, MT-4 cells, isolate K103N; assay type: cell-based; conditions: values in μM
Description: as §4, §1, §2, §3

HIV-1 isolate V108I = assay: Cytopathic cell killing assay, MT-4 cells, isolate V108I; assay type: cell-based; conditions: values in μM
Description: as §4, §1, §2, §3

HIV-1 isolate Y181C = assay: Cytopathic cell killing assay, MT-4 cells, isolate Y181C; assay type: cell-based
Description: as §4, §1, §2, §3

HIV-1 isolate Y188C = assay: Cytopathic cell killing assay, MT-4 cells, isolate Y188C; assay type: cell-based; conditions: values in μM
Description: as §4, §1, §2, §3

[2] = tested on: WT and HIV-1 variants containing amino acid substitutions in RT; assay type: cell-based; conditions: cytopathic cell killing assay, NNRTI-resistant HIV isolates
Description: In these Tables, antiviral data are reported as the quantity of drug in μM required to reduce cell killing or virus production by 50% (EC50). The various HIV isolates tested in the Figures are those corresponding to wild-type virus (NL4-3) and the other strains listed by their RT mutations. The three 4×AZT isolates included in the Figures represent AZT drug-resistant variants.
Briefly, in this method cells (e.g., the CEM-SS cell line, available from the NIAID AIDS Research and Reference Program [ARRRP]) were seeded at a density of 5×10^3 cells/well, into the wells of a 96-well microtiter plate. The cells were then infected with HIV virus (either mutant or WT), at a multiplicity of infection (MOI) previously determined to provide complete cell killing by 6 days of culture post-infection (e.g., MOI of 0.01-0.05). Each of the HIV isolates was pre-titered to induce equivalent levels of infection based on cell killing or virus production, prior to their use in these assays. A range of test compound concentrations was added to the wells in triplicate (e.g., serial half-log dilutions) to evaluate inhibition of HIV infection. Controls for each assay included drug controls (drug colorimetric control wells), drug cytotoxicity control wells (cells with drug), virus control wells (cells with virus), and cell viability controls (cells only). Positive control drugs (e.g. AZT and ddC) were also run in parallel.
as §2
Antiviral and toxicity data were reported as the quantity of drug required to inhibit 50% of virus-induced cell killing or virus production (EC50), and the quantity of drug required to […] (IC50). The in vitro therapeutic index (TI50) was defined as the fold-difference between the EC50 and IC50.

[3] = Human immunodeficiency virus 1, NL43, CEM-SS, Table 11, CEMSS/NL4-3, NRVC = no reduction in viral CPE
[4] = Human immunodeficiency virus 1, NL43, CEM-SS, Table 7, drug concentration required to reduce cell killing or virus production by 50%, WT
[5] = Human immunodeficiency virus 1, MT4, read-out: EC50, isolate V108I, Table 10
[6] = Human immunodeficiency virus 1, MT4, read-out: EC50, isolate Y181C, Table 10, values in μM
[7] = Human immunodeficiency virus 1, MT4, read-out: EC50, isolate Y188C, Table 10

SMILES | RT inhibition, result in words (HIV-1 WT RT) | EC50 (HIV-1 WT virus (NL4-3); [3]) [µM] | melting point | EC50 (HIV-1 WT virus (NL4-3); [4]) [µM] | EC50 (HIV-1 isolate V108I; [5]) [µM] | EC50 (HIV-1 isolate Y181C; [6]) [µM] | EC50 (HIV-1 isolate Y188C; [7]) [µM] | also measured
Fc1cccc(F)c1Cn1c(-c2c(F)cccc2F)nc2ccccc21 [Compound 26, 1-(2,6-difluorobenzyl)-2-(2,6-difluorophenyl)benzimidazole] | four-fold increase in inhibitory activity | 1.7 | – | – | – | – | – | inhibition at 1 µM (HIV-1 WT RT; Table 5, 1 μM drug, WT HIV-1 RT, average of two experiments done in triplicates, read-out: % inhibn (1 μM)): 50%; EC50 [1]: > 20 µM
Cc1ccccc1-c1nc2ccccc2n1Cc1c(F)cccc1F [Compound 36, 1-(2,6-difluorobenzyl)-2-(2-methylphenyl)benzimidazole] | two-fold decrease in RT inhibition | – | 139 °C | – | – | – | – | –
[N-]=[N+]=NCc1cccc2c1nc(-c1c(F)cccc1F)n2Cc1c(F)cccc1F [Compound 70, 1-(2,6-difluorobenzyl)-2-(2,6-difluorophenyl)benzimidazol-4-yl-azidomethyl] | – | – | – | – | – | – | – | EC50 (HIV-1 WT virus (NL4-3); Table 11, CEMSS/NL4-3, NRVC = no reduction in viral CPE): 0.045 µM; EC50 (HIV-1 NL4-3 (WT); Table 10, values in μM, read-out: EC50, isolate NL4-3 (WT)): 0.045 µM; EC50 (HIV-1 isolate L100I): 0.06 µM; EC50 (HIV-1 isolate K101E): 0.6 µM; EC50 (HIV-1 isolate K103N; Table 10, read-out: EC50, isolate K103N): 1.48 µM; EC50 (HIV-1 isolate V108I; Table 10, read-out: EC50, isolate V108I): 0.026 µM; EC50 (HIV-1 isolate Y181C; Table 10, values in μM, read-out: EC50, isolate Y181C): 0.82 µM; EC50 (HIV-1 isolate Y188C; Table 10, read-out: EC50, isolate Y188C): 0.22 µM
Fc1cccc(F)c1Cn1c(-c2c(F)cccc2F)nc2c(Br)cccc21 [Compound 3400, 4-bromo-1-(2,6-difluorobenzyl)-2-(2,6-difluorophenyl)benzimidazole] | – | – | 147 to 148 °C | 0.37 | 4.2 | 10.7 | 3.7 | –
Fc1cccc(F)c1Cn1c(-c2c(F)cccc2F)nc2c(Cl)cccc21 [Compound 3500, 4-chloro-1-(2,6-difluorobenzyl)-2-(2,6-difluorophenyl)benzimidazole] | – | 0.44 | 163 to 164 °C and 163 °C | 0.44 | 3.2 | 8.4 | 3.4 | inhibitory potency against HIV-1 (CIC50), result in words (HIV-1 WT virus (NL4-3); CEMSS cell culture, WT virus (NL4-3), relative to parent compounds 1 and 2): modest potency-enhancing effect; EC50 (HIV-1 NL4-3 (WT); Human immunodeficiency virus 1, NL43, MT4, Table 8, MT-4 cells, read-out: EC50, isolate NL4-3): 0.4 µM; EC50 (HIV-1 isolate K103N; Human immunodeficiency virus 1, MT4, read-out: EC50, isolate K103N, Table 10): 10.2 µM; EC50 (HIV-1 isolate Y181C; Human immunodeficiency virus 1, MT4, read-out: EC50, isolate Y181C, Table 8, MT-4 cells): 7.3 µM; cross-resistance profile, result in words [2]: inhibit HIV-1 better than TZB
